The compounds below were run against T1, PLK1 (Homo sapiens, UniProt P53350) (assay: PLK1 enzyme assay (Z'-LYTE, Invitrogen)). Details: ATP at or close to Km; read-out: Inhibitor Activity vs PLK1.
T1 construct: purchased Invitrogen (Paisley, UK)
Assay type: biochemical
Procedure: The ability of compounds to inhibit PLK-1 kinase activity was measured in an assay performed by Invitrogen (Paisley, UK). The Z′-LYTE™ biochemical assay employs a fluorescence-based, coupled-enzyme format and is based on the differential sensitivity of phosphorylated and non-phosphorylated peptides to proteolytic cleavage. The peptide substrate is labelled with two fluorophores—one at each end—that make up a FRET pair. In the primary reaction, the kinase transfers the gamma-phosphate of ATP to a single serine or threonine residue in a synthetic FRET-peptide. In the secondary reaction, a site-specific protease recognizes and cleaves non-phosphorylated FRET-peptides. Phosphorylation of FRET-peptides suppresses cleavage by the Development Reagent. Cleavage disrupts FRET between the donor (i.e., coumarin) and acceptor (i.e., fluorescein) fluorophores on the FRET-peptide, whereas uncleaved, phosphorylated FRET-peptides maintain FRET. A […] method, which calculates the ratio (the Emission Ratio) of donor emission to acceptor emission after excitation of the donor fluorophore at 400 nm, is used to quantitate reaction progress.
The assay is performed at an ATP concentration at, or close to, the Km. After the 60 minute Kinase Reaction incubation at RT, 5 μL of a 1:8 dilution of Development Reagent is added. The assay plate is incubated for a further 60 minutes at RT and read on a fluorescence plate reader.
Duplicate data points are generated from a ⅓ log dilution series of a stock solution of test compound in DMSO. Nine dilutions steps are made from a top concentration of 10 μM, and a ‘no compound’ blank is included. Data is collected and analysed using XLfit software from IDBS.

T1 sequence (P53350 whole entry): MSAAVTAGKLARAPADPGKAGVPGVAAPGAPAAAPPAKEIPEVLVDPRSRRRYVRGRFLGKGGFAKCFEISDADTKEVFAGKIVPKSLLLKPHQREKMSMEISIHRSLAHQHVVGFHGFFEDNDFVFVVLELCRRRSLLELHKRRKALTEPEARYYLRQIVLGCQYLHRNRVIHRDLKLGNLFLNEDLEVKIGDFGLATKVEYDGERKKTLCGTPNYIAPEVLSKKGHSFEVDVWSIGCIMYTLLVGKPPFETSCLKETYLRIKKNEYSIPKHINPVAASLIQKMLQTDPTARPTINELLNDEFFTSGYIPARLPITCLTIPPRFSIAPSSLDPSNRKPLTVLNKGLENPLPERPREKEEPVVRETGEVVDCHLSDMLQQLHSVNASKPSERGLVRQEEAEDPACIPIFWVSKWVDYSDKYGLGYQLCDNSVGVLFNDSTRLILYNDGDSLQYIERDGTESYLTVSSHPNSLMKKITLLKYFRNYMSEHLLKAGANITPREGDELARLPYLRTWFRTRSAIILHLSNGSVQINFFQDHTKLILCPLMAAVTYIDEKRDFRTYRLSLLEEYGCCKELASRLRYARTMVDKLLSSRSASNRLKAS

Row | IC50 [nM] | SMILES
1 | < 100 | CC[C@@H]1C(=O)N(C)c2cnc(Nc3ccc(/C=C/C[C@H](N)C(=O)OC4CCCC4)cc3)nc2N1C1CCCC1 [Example 2]
2 | < 100 | CC[C@@H]1C(=O)N(C)c2cnc(Nc3ccc(C(=O)Nc4ccc(C[C@H](N)C(=O)O)cc4)cc3OC)nc2N1C1CCCC1 [Example 33]
3 | < 100 | CC[C@@H]1C(=O)N(C)c2cnc(Nc3ccc(C(=O)N[C@@H]4CN[C@H](C(=O)O)C4)cc3OC)nc2N1C1CCCC1 [Example 39, (4S)-4-[(4-{[(7R)-8-Cyclopentyl-7-ethyl-5-methyl-6-oxo-5,6,7,8-tetrahydropteridin-2-yl]amino}-3-methoxybenzoyl)amino]-L-proline]
4 | < 100 | CC[C@@H]1C(=O)N(C)c2cnc(Nc3ccc(C(=O)NCc4ccc(OCC[C@H](N)C(=O)O)cc4)cc3OC)nc2N1C1CCCC1 [Example 41, O-(4-{[(4-{[(7R)-8-Cyclopentyl-7-ethyl-5-methyl-6-oxo-5,6,7,8-tetrahydropteridin-2-yl]amino}-3-methoxybenzoyl)amino]methyl}phenyl)-L-homoserine]
5 | < 100 | CC[C@@H]1C(=O)N(C)c2cnc(Nc3ccc(C(=O)NCCN4CCNC(C(=O)O)C4)cc3OC)nc2N1C1CCCC1 (stereo partly drawn) [Example 43, 4-{2-[(4-{[(7R)-8-Cyclopentyl-7-ethyl-5-methyl-6-oxo-5,6,7,8-tetrahydropteridin-2-yl]amino}-3-methoxybenzoyl)amino]ethyl}piperazine-2-carboxylic acid]
6 | < 100 | CC[C@@H]1C(=O)N(C)c2cnc(Nc3ccc(C(=O)NC4CCN(CC[C@H](N)C(=O)O)C4)cc3OC)nc2N1C1CCCC1 (stereo partly drawn) [Example 44, (2S)-2-amino-4-{3-[(4-{[(7R)-8-Cyclopentyl-7-ethyl-5-methyl-6-oxo-5,6,7,8-tetrahydropteridin-2-yl]amino}-3-methoxybenzoyl)amino]pyrrolidin-1-yl}butanoic acid]
7 | < 100 | CC[C@@H]1C(=O)N(C)c2cnc(Nc3ccc(C(=O)NC4C5CN(CC[C@H](N)C(=O)O)CC54)cc3OC)nc2N1C1CCCC1 (stereo partly drawn) [Example 45, (2S)-2-Amino-4-{6-[(4-{[(7R)-8-cyclopentyl-7-ethyl-5-methyl-6-oxo-5,6,7,8-tetrahydropteridin-2-yl]amino}-3-methoxybenzoyl)amino]-3-azabicyclo[3.1.0]hex-3-yl} butanoic acid]
8 | < 100 | CC[C@@H]1C(=O)N(C)c2cnc(Nc3ccc(C(=O)NC4CCN(CCC[C@@H](N)C(=O)O)CC4)cc3OC)nc2N1C1CCCC1 [Example 47, 5-{4-[(4-{[(7R)-8-Cyclopentyl-7-ethyl-5-methyl-6-oxo-5,6,7,8-tetrahydropteridin-2-yl]amino}-3-methoxybenzoyl)amino]piperidin-1-yl}-D-norvaline]
9 | < 100 | CC[C@@H]1C(=O)N(C)c2cnc(Nc3ccc(C(=O)NC4CCN(CC[C@H](N)C(=O)O)CC4)cc3C)nc2N1C1CCCC1 [Example 48, (2S)-2-Amino-4-{4-[(4-{[(7R)-8-cyclopentyl-7-ethyl-5-methyl-6-oxo-5,6,7,8-tetra hydropteridin-2-yl]amino}-3-methylbenzoyl)amino]piperidin-1-yl}butanoic acid]
10 | < 100 | CC[C@@H]1C(=O)N(C)c2cnc(Nc3ccc(C(=O)NC4CCN(CC[C@H](N)C(=O)O)CC4)cc3OC)nc2N1C1CCCC1 [Example 53, (2S)-2-amino-4-{4-[(4-{[(7R)-8-cyclopentyl-7-ethyl-5-methyl-6-oxo-5,6,7,8-tetrahydropteridin-2-yl]amino}-3-methoxybenzoyl)amino]piperidin-1-yl}butanoic acid]

More lines, now with the values behind:

Row | SMILES | IC50 [nM]
11 | CC[C@@H]1C(=O)N(C)c2cnc(Nc3ccc(C[C@H](N)C(=O)OC4CCCC4)cc3)nc2N1C1CCCC1 [Example 1, Cyclopentyl 4-{[(7R)-8-cyclopentyl-7-ethyl-5-methyl-6-oxo-5,6,7,8-tetrahydropteridin-2-yl]amino}-L-phenylalaninate] | < 100
12 | CC[C@@H]1C(=O)N(C)c2cnc(Nc3ccc(C(=O)NC4CCN(CC[C@H](N)C(=O)O[C@@H]5C[C@H](C)CC[C@H]5C(C)C)CC4)cc3OC)nc2N1C1CCCC1 [Example 32] | < 100
13 | CC[C@@H]1C(=O)N(C)c2cnc(Nc3ccc(C[C@H](N)C(=O)O)cc3)nc2N1C1CCCC1 [Example 34, 4-{[(7R)-8-Cyclopentyl-7-ethyl-5-methyl-6-oxo-5,6,7,8-tetrahydropteridin-2-yl]amino}-L-phenylalanine] | < 100
14 | CC[C@@H]1C(=O)N(C)c2cnc(Nc3ccc(/C=C/C[C@H](N)C(=O)O)cc3)nc2N1C1CCCC1 [Example 35, (2S,4E)-2-Amino-5-(4-{[(7R)-8-cyclopentyl-7-ethyl-5-methyl-6-oxo-5,6,7,8-tetrahydropteridin-2-yl]amino}phenyl)pent-4-enoic acid] | < 100
15 | CC[C@@H]1C(=O)N(C)c2cnc(Nc3ccc(OCC[C@H](N)C(=O)O)cc3)nc2N1C1CCCC1 [Example 36, O-(4-{[(7R)-8-Cyclopentyl-7-ethyl-5-methyl-6-oxo-5,6,7,8-tetrahydropteridin-2-yl]amino}phenyl)-L-homoserine] | < 100
16 | CC[C@@H]1C(=O)N(C)c2cnc(Nc3ccc(OCC[C@H](N)C(=O)O)cc3OC)nc2N1C1CCCC1 [Example 37, O-(4-{[(7R)-8-Cyclopentyl-7-ethyl-5-methyl-6-oxo-5,6,7,8-tetrahydropteridin-2-yl]amino}-3-methoxyphenyl)-L-homoserine] | < 100
17 | CCC1C(=O)N(C)c2cnc(Nc3ccc(C(=O)NCCC(N)C(=O)O)cc3OC)nc2N1C1CCCC1 [Example 38, (2S)-2-Amino-4-[(4-{[(7R)-8-cyclopentyl-7-ethyl-5-methyl-6-oxo-5,6,7,8-tetrahydropteridin-2-yl]amino}-3-methoxybenzoyl)amino]butananoic acid] | < 100
18 | CC[C@@H]1C(=O)N(C)c2cnc(Nc3ccc(C(=O)NCCCC[C@H](N)C(=O)O)cc3OC)nc2N1C1CCCC1 [Example 40, N^6-(4-{[(7R)-8-cyclopentyl-7-ethyl-5-methyl-6-oxo-5,6,7,8-tetrahydropteridin-2-yl]amino}-3-methoxybenzoyl)lysine] | < 100
19 | CC[C@@H]1C(=O)N(C)c2cnc(Nc3ccc(C(=O)N4CCNC(C(=O)O)C4)cc3OC)nc2N1C1CCCC1 (stereo partly drawn) [Example 42, 4-(4-{[(7R)-8-Cyclopentyl-7-ethyl-5-methyl-6-oxo-5,6,7,8-tetrahydropteridin-2-yl]amino}-3-methoxybenzoyl)piperazine-2-carboxylic acid] | < 100
20 | CC[C@@H]1C(=O)N(C)c2cnc(Nc3ccc(C(=O)NC4CCN(CCC[C@H](N)C(=O)O)CC4)cc3OC)nc2N1C1CCCC1 [Example 46, 5-{4-[(4-{[(7R)-8-Cyclopentyl-7-ethyl-5-methyl-6-oxo-5,6,7,8-tetrahydropteridin-2-yl]amino}-3-methoxybenzoyl)amino]piperidin-1-yl}-L-norvaline] | < 100
21 | CC[C@@H]1C(=O)N(C)c2cnc(Nc3ccc(C(=O)NC4CCN(CC[C@H](N)C(=O)O)CC4)cc3F)nc2N1C1CCCC1 [Example 49, (2S)-2-Amino-4-{4-[(4-{[(7R)-8-cyclopentyl-7-ethyl-5-methyl-6-oxo-5,6,7,8-tetra hydropteridin-2-yl]amino}-3-fluorobenzoyl)amino]piperidin-1-yl}butanoic acid] | < 100
22 | CC[C@@H]1C(=O)N(C)c2cnc(Nc3ccc(C(=O)NC4CCN(CC[C@@H](N)C(=O)O)CC4)cc3OC)nc2N1C1CCCC1 [Example 50, (2R)-2-Amino-4-{4-[(4-{[(7R)-8-cyclopentyl-7-ethyl-5-methyl-6-oxo-5,6,7,8-tetra hydropteridin-2-yl]amino}-3-methoxybenzoyl)amino]piperidin-1-yl}butanoic acid] | < 100
23 | CC[C@@H]1C(=O)N(C)c2cnc(Nc3ccc(C(=O)N4CCNC(C(=O)O)C4)cc3OC)nc2N1C1CCCC1 (stereo partly drawn) [Example 52, 4-(4-{[(7R)-8-cyclopentyl-7-ethyl-5-methyl-6-oxo-5,6,7,8-tetrahydropteridin-2-yl]amino}-3-methoxbenzoyl)piperazine-2-carboxylic acid] | < 100

Same assay, conditions: acid of the ester; read-out: Inhibition of PLK (IC50, nM) acid

Row | IC50 [nM] | SMILES
24 | 6 | CC[C@@H]1C(=O)N(C)c2cnc(Nc3ccc(C(=O)NC4CCN(CC[C@H](N)C(=O)O)CC4)cc3OC)nc2N1C1CCCC1 [Example 53, (2S)-2-amino-4-{4-[(4-{[(7R)-8-cyclopentyl-7-ethyl-5-methyl-6-oxo-5,6,7,8-tetrahydropteridin-2-yl]amino}-3-methoxybenzoyl)amino]piperidin-1-yl}butanoic acid]

Each compound was assayed on HCT 116 cell line (assay: Cell inhibition assay method A (WST-1, 120 hrs)). Details: Homo sapiens, HCT-116, method A, read-out: Inhibitor Activity vs HCT 116 cell line (method A).
Assay type: cell-based
Procedure: Cell inhibition assays were carried out using either method A or method B
Cells were seeded in 96W tissue culture plates (1 well=30 mm^2) at a density of […] per well in 50 μL of the appropriate culture medium (see below). 24 hrs later […] of the compound prepared in the same medium was added as 4 fold dilutions to give final concentrations in the range 0.15 nM-2500 nM (n=6 for each concentration). The plates were then incubated at 37° C., 5% CO2 for 120 hrs. Cell proliferation was assessed using WST-1 (a metabolic indicator dye, Roche Cat no. 1 644 807) according to the manufacturers instructions. The results were calculated as percentage of vehicle response and IC50 values represent the concentration of compound that inhibited the vehicle response by 50%.
HCT-116 culture medium —Dulbeccos MEM (Sigma D6546) plus 10% heat inactivated fetal calf serum (Hyclone SH30071 Thermo Fischer Scientific) containing 2 mM Glutamine (Sigma cat no G-7513) and 50 U/ml Penicillin and Streptomycin Sulphate (Sigma Cat no P-0781).

Row | IC50 [µM] | SMILES
25 | 0.1 to 0.5 | CC[C@@H]1C(=O)N(C)c2cnc(Nc3ccc(C[C@H](N)C(=O)OC4CCCC4)cc3)nc2N1C1CCCC1 [Example 1, Cyclopentyl 4-{[(7R)-8-cyclopentyl-7-ethyl-5-methyl-6-oxo-5,6,7,8-tetrahydropteridin-2-yl]amino}-L-phenylalaninate]
26 | < 0.1 | CC[C@@H]1C(=O)N(C)c2cnc(Nc3ccc(/C=C/C[C@H](N)C(=O)OC4CCCC4)cc3)nc2N1C1CCCC1 [Example 2]

Reference: patent publication US20100216802A1, “PTERIDINE DERIVATIVES AS POLO-LIKE KINASE INHIBITORS USEFUL IN THE TREATMENT OF CANCER” (CHROMA THERAPEUTICS LTD., priority 2006, published 2010)
